Measurements from patent US20250213587A1, “ITK INHIBITORS FOR INCREASING TH1 CELL ACTIVITY” (Corvus Pharmaceuticals, Inc., priority 2022, published 2025).

What was measured:
human T cells (PBMC) = test: T cell activation, Th1 skewing, cell number and viability; format: cell-based
Description: (§1) Fresh PBMCs from healthy human donors were centrifuged and reconstituted at 0.312×10^6 cells/mL in RPMI 1640 medium+10% heat-inactivated FBS+1× penicillin streptomycin and 100,000 cells/well were distributed into 24 well tissue culture plate. Cells were incubated at 37° C. for 1 hour, followed by the addition of CPI 596 or vehicle. The cells were then incubated at 37° C. for 1 hour, followed by the addition of […] anti CD3 and anti CD28 (both eBioscience). Cells were incubated at 37° C. for 6 days, with supplemental media supplied on day 3. On Day 6, the cells were transferred to a 96 deep well plate, washed, and treated with 50 nM phorbol 12-myristate 13-acetate, 1 μg/mL ionomycin, and 1 μg/mL brefeldin A, and then incubated at 37° C. for 4 hours. The cells were then fixed and permeabilized using eBioscience Fox3/transcription factor staining buffer. Cells were treated with Fc block (BioLegend) and then stained with CD3 BV605, CD45RA PerCP-Cy5.5, Tbet PE, IFNγ AF488, IL-4 APC (BioLegend), CD4 PE-Cy7, cPARP AF700 (BD Biosciences), and CD8 Krome Orange (Beckman Coulter). For flow cytometry, 300,000 cells were acquired on Cytoflex (Beckman Coulter). Data were analyzed using Flowjo software. The percentage of CD4^+ T cells that were positive for IFNγ and IL 4 were reported.

Cys442Ala ITK = Cys442Ala ITK (Homo sapiens, UniProt Q08881, C442A); test: Inhibition of Cys442Ala ITK mutant; format: biochemical; conditions: similar conditions
Chain of Cys442Ala ITK (Q08881 whole entry C442A): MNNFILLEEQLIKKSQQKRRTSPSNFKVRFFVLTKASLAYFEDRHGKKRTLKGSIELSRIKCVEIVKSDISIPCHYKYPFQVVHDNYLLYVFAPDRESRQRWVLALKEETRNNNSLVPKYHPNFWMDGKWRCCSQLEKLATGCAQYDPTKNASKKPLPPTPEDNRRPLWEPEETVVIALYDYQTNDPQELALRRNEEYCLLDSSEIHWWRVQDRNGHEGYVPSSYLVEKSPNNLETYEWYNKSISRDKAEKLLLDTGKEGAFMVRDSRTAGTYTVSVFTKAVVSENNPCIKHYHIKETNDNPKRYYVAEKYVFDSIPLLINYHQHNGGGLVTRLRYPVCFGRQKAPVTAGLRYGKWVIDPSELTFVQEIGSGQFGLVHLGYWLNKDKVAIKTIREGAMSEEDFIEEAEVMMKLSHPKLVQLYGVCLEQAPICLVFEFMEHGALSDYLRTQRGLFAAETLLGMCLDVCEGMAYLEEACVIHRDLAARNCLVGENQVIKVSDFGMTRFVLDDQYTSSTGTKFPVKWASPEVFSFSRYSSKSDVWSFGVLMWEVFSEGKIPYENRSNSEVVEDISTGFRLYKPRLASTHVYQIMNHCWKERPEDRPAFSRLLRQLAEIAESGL
Description: Two biochemical assays of kinase activity were employed. […] In the Lanthascreen assay each kinase (1.0 nM) was incubated with compound for 120 minutes at 22° C. in a buffer composed of 50 mM HEPES (pH 7.5), 10 mM MgCl2, 1 mM EGTA, and 0.01% Brij 35. The kinase reaction was initiated by the addition of ATP (50 μM final) and fluorescein-poly-Glu-Tyr peptide (200 nM final). The reaction was quenched after 60 minutes at 22° C., and phospho-peptide product detected by the addition of EDTA (10 mM final) and terbium PY20 antibody (2 nM final). The phospho-peptide product was measured by time-resolved fluorescence resonance energy transfer (TR FRET) between the terbium of the antibody and fluorescein of the phospho-peptide using an EnVision plate reader (PerkinElmer, Waltham, MA) equipped to detect the TR-FRET signal (excitation 320 nm, dual emission at 495 nm and 520 nm). All reagents including recombinant human kinases, fluorescein-poly-Glu-Tyr peptide, terbium PY20 antibody, and kinase buffer A were purchased from Invitrogen.
Inhibition of kinase activity was measured by construction of a concentration response curve of the inhibitor. […] The response reading was normalized according to equation 1 and plotted against the Log base 10 transformed values of the molar concentration of inhibitor. The IC50 value was obtained by fitting equation 2 to the data. […]

[1] = system: MRL lymphoproliferation strain mice; test: MRL/lpr lupus model; conditions: mouse, in vivo
[2] = system: IL-4 production by CD4+ T cells; test: T cell activation, IL-4+CD4+ T cells; format: cell-based, human
Description: as §1

[3] = system: peripheral T cell lymphoma; test: Anti-tumor activity in human clinical trials (T cell lymphoma); format: in vivo
Description: Each lane represents a patient with the length indicating time on treatment. A treatment cycle is 21 days and then the cycle is repeated until the patient experiences tumor progression or unacceptable toxicity.

[4] = system: IL-2 secretion by Jurkat T cells; test: Inhibition of IL-2 production in Jurkat cells; format: cell-based; conditions: Homo sapiens, washout, anti-CD3 18 hours, 15 determinations
Description: Jurkat cells (0.25×10^6) in Dulbecco's Modified Eagle's medium (Gibco) supplemented with 5% FBS were seeded in each well of a 96 well MultiScreenR HV filter plate (EMD Millipore) placed on top of a 96 well collection plate. CPI 818 was serially diluted in DMSO and added to the culture. After a 2-hour incubation at 37° C. the plates were centrifuged (188×g for 15 seconds) to remove the inhibitor-containing medium from the filter plate. Cells were washed twice by resuspending with 200 μL of medium per well and centrifuged. Cells in each well were then resuspended with 1.25×10^6 (50 μL) of Dynabeads CD3 (Life Technologies) and incubated for 18 hours at 37° C. Conditioned media was collected by centrifugation (188×g for 1 min). Human IL-2 concentration was measured with the AlphaLISA human IL2 Kit (PerkinElmer) and data collected on an Envision Plate Reader (PerkinElmer). Data were analyzed and graphed using GraphPad Prism version b7.0b. Technical duplicates of the concentration response were collected at each determination.

[5] = Glutathione reactivity assay; format: physicochemical; conditions: 37° C.
Description: The reactivity of acrylamides with glutathione was determined by measuring the disappearance of starting material and appearance of the adduct with glutathione in HPLC-MS spectra as a function of time. All the stock solutions and solvents were bubbled with nitrogen and all reactions were run under nitrogen at 37° C. A 250 μL volume of 20 mM test compound in DMSO was mixed with 250 μL of 2.0 mM indoprofen (used as internal standard) in DMSO and 4.5 mL of 11.1 mM glutathione in 100 mM potassium phosphate buffer (pH 7.4). Each reaction contained 1 mM test compound, 0.1 mM indoprofen, and 10 mM glutathione in 100 mM potassium phosphate buffer and 10% DMSO. The reaction mixture was stirred at 37° C. for 5 hours and sampled for HPLC-MS analysis every hour. The reaction product, internal standard and starting materials were separated by liquid chromatography using an Agilent Eclipse XBD-C18 column (4.6×150 mm, 3.5 um) and quantified by UV absorption. The mobile phase consisted of solvent A (water) and solvent B (acetonitrile), employing a gradient of 10% to 95% solvent B over 10 min.

[6] = PTCL-NOS patient, within 8-15 days

C=CC(=O)N1CCCN(C(=O)c2cc(Sc3cnc(NC(=O)C4CC4)s3)c(C)cc2OC)C[C@H]1C [CPI-818]
total T cell proliferation (human T cells (PBMC); 10 μM): abrogates total T cell proliferation | total number of cells and cell viability (human T cells (PBMC); ≥1 μM / high concentrations): reduced the total number of cells while maintaining cell viability | change of IC50 at Cys442Ala ITK compared to wild-type (Cys442Ala ITK): > 100 fold | lymphadenopathy [1]: inhibits | proteinuria [1]: inhibits | IL-4 production ([2]; 10 μM): complete inhibition | inhibition at 1 µM ([2]; Homo sapiens, CD4+ T, 1 μM, average, read-out: inhibition of percentage of CD4+ T cells that produced IL-4): 64% | dose with best anti-tumor response ([3]; 100, 200, 400, 600 mg BID evaluated): best response occurred at the dose of 200 mg BID | duration of complete remission ([3]; Example 2, 200 mg BID): 25 months | response of patient with peripheral T-cell lymphoma NOS ([3]; Example 2, 200 mg BID): complete remission | response of patient with PTCL-NOS ([3]; FIG. 23, cycle 17, after 1 year of treatment): complete response | duration of complete response ([3]; FIG. 23 patient): 19 months | platelets (PLT) and lactate dehydrogenase (LDH) [3, 6]: improvement | subcutaneous (SQ) tumor [3, 6]: dramatic reduction | IC50 [4]: 136 nM | stability of acrylamide in presence of glutathione ([5]; 3 h): minimal loss | loss in presence of glutathione ([5]; physiological glutathione, 5 h): 4%
